Reference: ChEMBL document CHEMBL1926604, “Design and synthesis of pyridin-2-ylmethylaminopiperidin-1-ylbutyl amide CCR5 antagonists that are potent inhibitors of M-tropic (R5) HIV-1 replication” (Bioorg Med Chem Lett, 2011)
pIC50: −log10 of the molar value.

Tests used:
[1] = tested on: Human immunodeficiency virus 1; assay: Antiviral activity against R5 tropic Human immunodeficiency virus 1 BAL infected in human PBMC cells assessed as reduction in viral replication by p24 detection based ELISA; type: functional, organism-based
[2] = Cytotoxic activity against human PBMC assessed as reduction in cell viability; type: cell-based
[3] = Plasma protein binding in human plasma at 1 uM after 5 hrs by LC-MS/MS analysis; type: ADME, cell-free; conditions: read-out: PPB (converted)
[4] = Cmax in dog; type: ADME, organism-based, Canis lupus familiaris; conditions: in vivo
[5] = AUC (0 to infinity) in dog; type: ADME, organism-based, Canis lupus familiaris; parameters: time infinity; concentration or dose not given beside the values; conditions: plasma
[6] = Clearance in dog at 5 umol/kg, iv; type: ADME, organism-based, Canis lupus familiaris; conditions: in vivo
[7] = Volume of distribution at steady state in dog at 5 umol/kg, iv; type: ADME, organism-based, Canis lupus familiaris; conditions: in vivo, read-out: Vdss
[8] = Half life in dog at 5 umol/kg, iv; type: ADME, organism-based, Canis lupus familiaris; conditions: in vivo
[9] = Oral bioavailability in dog; type: ADME, organism-based, Canis lupus familiaris; conditions: in vivo
[10] = Cmax in rat; type: ADME, organism-based; conditions: in vivo
[11] = AUC (0 to infinity) in rat; type: ADME, organism-based; parameters: time infinity; concentration or dose not given beside the values; conditions: plasma
[12] = Clearance in rat at 10 umol/kg, iv; type: ADME, organism-based; conditions: in vivo
[13] = Volume of distribution at steady state in rat at 10 umol/kg, iv; type: ADME, organism-based; conditions: in vivo, 10 umol/kg, read-out: Vdss
[14] = Half life in rat at 10 umol/kg, iv; type: ADME, organism-based; conditions: in vivo, 10 umol/kg
[15] = Oral bioavailability in rat; type: ADME, organism-based; conditions: in vivo

SMILES	pIC50 [1]	CC50 [2] [µM]	fraction unbound at 5 h, 1 µM [3]	also measured
COc1ccc(N(Cc2cnccc2C)C2CCN([C@H](C)CCNC(=O)c3c(C)cc(C#N)nc3C)CC2)cc1	7.60	> 34.8	0.02	–
COc1ccc(N(Cc2cccc(C#N)n2)C2CCN([C@H](C)CCNC(=O)c3c(C)cc(F)nc3C)CC2)cc1	8.44	> 35.8	0.21	–
COCCOc1ccc(N(Cc2cnccc2C)C2CCN([C@H](C)CCNC(=O)c3c(C)cc(C#N)nc3C)CC2)cc1	7.49	> 32.6	0.08	–
COc1ccc(N(Cc2cnccc2C)C2CCN([C@H](C)CCNC(=O)c3c(C)cncc3C)CC2)cc1	4.94	> 38.8	–	–
COCCOc1ccc(N(Cc2cnccc2C)C2CCN([C@H](C)CCNC(=O)c3c(C)cc(F)nc3C)CC2)cc1	7.64	> 32.7	0.19	–
Cc1ccncc1CN(c1ccc(OCC(N)=O)cc1)C1CCN([C@H](C)CCNC(=O)c2c(C)cc(C#N)nc2C)CC1	8.48	> 34.3	0.11	–
COc1ccc(N(Cc2cccc(C#N)c2)C2CCN(C(C)CCNC(=O)c3c(Cl)cncc3Cl)CC2)cc1 (stereo unspecified)	7.85	> 1.76	–	–
Cc1ccncc1CN(c1ccccc1)C1CCN([C@H](C)CCNC(=O)c2c(C)cc(C#N)nc2C)CC1	–	–	0.06	–
COc1ccc(N(Cc2cccc(C#N)n2)C2CCN([C@H](C)CCNC(=O)c3c(C)cc(Cl)nc3C)CC2)cc1	8.46	> 35.1	0.16	Cmax [4]: 520 nM; AUC(0-inf) [5]: 0.72 µM·h; clearance [6]: 42.7 mL/min/kg; Vd [7]: 3 L/kg; half-life [8]: 0.8 h; bioavailability [9]: 15%
CC(CCNC(=O)c1c(Cl)cncc1Cl)N1CCC(N(Cc2cccc(Cl)c2)c2ccc(Br)cc2)CC1 (stereo unspecified)	6.40	7.3	–	–
CC(CCNC(=O)c1c(Cl)cncc1Cl)N1CCC(N(Cc2cccc(C#N)c2)c2ccc(C(F)(F)F)cc2)CC1 (stereo unspecified)	9.00	12.3	–	–
COc1ccc(N(Cc2cccc(C#N)n2)C2CCN([C@H](C)CCNC(=O)c3c(C)cc(C#N)nc3C)CC2)cc1	8.41	> 36.3	0.09	–
COc1ccc(N(Cc2cnccc2C)C2CCN([C@H](C)CCNC(=O)c3c(C)cc(F)nc3C)CC2)cc1	8.66	> 36.3	0.21	Cmax [10]: 1270 nM; Cmax [4]: 410 nM; AUC(0-inf) [11]: 10.9 µM·h; AUC(0-inf) [5]: 0.65 µM·h; clearance [12]: 16.6 mL/min/kg; clearance [6]: 32 mL/min/kg; Vd [13]: 4.6 L/kg; Vd [7]: 8.3 L/kg; half-life [14]: 3.3 h; half-life [8]: 3 h; bioavailability [15]: 3%; bioavailability [9]: 10%
COc1cccc(CN(c2ccc(Br)cc2)C2CCN(C(C)CCNC(=O)c3c(Cl)cncc3Cl)CC2)c1 (stereo unspecified)	5.54	6.4	–	–
CC(CCNC(=O)c1c(Cl)cncc1Cl)N1CCC(N(Cc2cccc(C#N)c2)c2ccc(OC(F)(F)F)cc2)CC1 (stereo unspecified)	8.70	6	< 0.001	Cmax [10]: 530 nM; Cmax [4]: 750 nM; AUC(0-inf) [11]: 7.3 µM·h; AUC(0-inf) [5]: 5.11 µM·h; clearance [12]: 132 mL/min/kg; clearance [6]: 15 mL/min/kg; Vd [13]: 23.7 L/kg; Vd [7]: 6 L/kg; half-life [14]: 5 h; half-life [8]: 5.4 h; bioavailability [15]: 57%; bioavailability [9]: 36%
CC(CCNC(=O)c1c(Cl)cncc1Cl)N1CCC(N(Cc2ccc(Cl)cc2)c2ccc(Br)cc2)CC1 (stereo unspecified)	< 5.89	4.3	–	–
COc1ccc(N(Cc2cnccc2C)C2CCN([C@H](C)CCNC(=O)c3c(C)ccnc3Cl)CC2)cc1	7.65	> 37.7	0.12	Cmax [10]: 3110 nM; Cmax [4]: 150 nM; AUC(0-inf) [11]: 18.3 µM·h; AUC(0-inf) [5]: 0.2 µM·h; clearance [12]: 58.7 mL/min/kg; clearance [6]: 36.5 mL/min/kg; Vd [13]: 15.4 L/kg; Vd [7]: 10.3 L/kg; half-life [14]: 3 h; half-life [8]: 3.3 h; bioavailability [15]: 70%; bioavailability [9]: 4%

SMILES	pIC50 [1]	CC50 [2] [µM]	fraction unbound at 5 h, 1 µM [3]	also measured
COc1ccc(N(Cc2cnccc2C)C2CCN([C@H](C)CCNC(=O)c3c(C)ccnc3C)CC2)cc1	5.98	> 38.9	0.05	–
CC(CCNC(=O)c1c(Cl)cncc1Cl)N1CCC(N(Cc2ccccc2)c2ccc(C(F)(F)F)cc2)CC1 (stereo unspecified)	6.96	8.1	–	–
COC(=O)c1ccc(N(Cc2ccccc2)C2CCN(C(C)CCNC(=O)c3c(Cl)cncc3Cl)CC2)cc1 (stereo unspecified)	6.75	21.4	–	–
COc1ccc(N(Cc2cccnc2)C2CCN([C@H](C)CCNC(=O)c3c(C)cc(F)nc3C)CC2)cc1	7.53	> 36.7	0.14	–
COc1ccc(N(Cc2cnccc2C)C2CCN([C@H](C)CCNC(=O)c3c(C)cc(C(=O)NC(C)C)nc3C)CC2)cc1	9.02	> 32.8	0.11	Cmax [4]: 920 nM; AUC(0-inf) [5]: 0.48 µM·h; clearance [6]: 21.1 mL/min/kg; Vd [7]: 5.2 L/kg; half-life [8]: 2.8 h; bioavailability [9]: 5%
COCCOc1ccc(N(Cc2cnccc2C)C2CCN([C@H](C)CCNC(=O)c3c(C)cc(Cl)nc3C)CC2)cc1	8.70	> 32.7	0.15	Cmax [10]: 1070 nM; Cmax [4]: 10 nM; AUC(0-inf) [11]: 7.18 µM·h; AUC(0-inf) [5]: 0.02 µM·h; clearance [12]: 61.2 mL/min/kg; clearance [6]: 157 mL/min/kg; Vd [13]: 9.2 L/kg; Vd [7]: 4.9 L/kg; half-life [14]: 1.7 h; half-life [8]: 1.3 h; bioavailability [15]: 27%; bioavailability [9]: < 1%
Cc1ccncc1CN(c1ccc([S+](C)[O-])cc1)C1CCN([C@H](C)CCNC(=O)c2c(C)ncnc2C)CC1 (stereo partly specified)	< 4.49	> 32.4	–	–
CC(CCNC(=O)c1c(Cl)cncc1Cl)N1CCC(N(Cc2ccccc2)c2ccc(C(=O)N(C)C)cc2)CC1 (stereo unspecified)	5.02	> 30	–	–
COc1ccc(N(Cc2ccccc2)C2CCN(C(C)CCNC(=O)c3c(Cl)cncc3Cl)CC2)cc1 (stereo unspecified)	5.66	36.5	–	–
CC(CCNC(=O)c1c(Cl)cncc1Cl)N1CCC(N(Cc2ccccc2)c2ccc(C#N)cc2)CC1 (stereo unspecified)	6.42	9.7	–	–
CC(CCNC(=O)c1c(Cl)cncc1Cl)N1CCC(N(Cc2cccc(C#N)c2)c2ccc(C#N)cc2)CC1 (stereo unspecified)	6.42	33.6	–	–
CC(CCNC(=O)c1c(Cl)cncc1Cl)N1CCC(N(Cc2cccc(C#N)c2)c2ccc(Br)cc2)CC1 (stereo unspecified)	7.05	6.7	–	–
CC(CCNC(=O)c1c(Cl)cncc1Cl)N1CCC(N(Cc2ccccc2Cl)c2ccc(Br)cc2)CC1 (stereo unspecified)	< 5.90	5.7	–	–
CC(CCNC(=O)c1c(Cl)cncc1Cl)N1CCC(N(Cc2ccccc2)c2ccc(Br)cc2)CC1 (stereo unspecified)	6.66	–	–	–
CC(CCNC(=O)c1c(Cl)cncc1Cl)N1CCC(N(Cc2ccccc2)c2ccc(OC(F)(F)F)cc2)CC1 (stereo unspecified)	7.23	4	–	–
CC(CCNC(=O)c1c(Cl)cncc1Cl)N1CCC(N(Cc2ccccc2)c2ccc(Oc3ccc(C(=O)O)cc3)cc2)CC1 (stereo unspecified)	7.02	22.1	< 0.001	Cmax [10]: 2790 nM; Cmax [4]: 11200 nM; AUC(0-inf) [11]: 9.07 µM·h; AUC(0-inf) [5]: 14.5 µM·h; clearance [12]: 30 mL/min/kg; clearance [6]: 5 mL/min/kg; Vd [13]: 4.2 L/kg; Vd [7]: 0.4 L/kg; half-life [14]: 4.8 h; half-life [8]: 1.5 h; bioavailability [15]: 16%; bioavailability [9]: 35%
